Reference: patent US20160256449A1, “H3 RECEPTOR ANTAGONIST FOR USE IN THE TREATMENT OF ALZHEIMER'S DISEASE” (SANOFI, priority 2013, published 2016)

Tests used:
CD1 male mice = assay: object recognition test in normal mice; assay type: in vivo
Description: FIG. 1 illustrates the results of the effect of a co-treatment with 2-(cyclohexyl methyl)-N-{2-[(2S)-1-methyl pyrrolidin-2-yl]ethyl}-1,2,3,4-tetrahydroisoquinoline-7-sulfonamide and donepezil on recognition memory in normal mice at various delays using the object recognition task.
The results of this study are depicted in FIG. 1.

[1] = system: patients with mild to moderate Alzheimer's disease; assay: clinical study, actigraphy (Actiwatch); assay type: in vivo, human; conditions: for Interdaily variability, Ch from bl FUP / Intradaily stability, Ch from bl FUP / Mean awakening duration, Ch from bl FUP / Number of awakenings, Ch from bl FUP / Relative amplitude, Ch from bl FUP / Sleep efficiency, Ch from bl FUP / Sleep fragmentation, Ch from bl FUP / Total sleep time, Ch from bl FUP / Wake after sleep onset, Ch from bl FUP: follow-up
Description: Actigraphy as used herein refers to an assessment of activity measured by an Actiwatch®, which was worn day and night by the patient during 4 periods of 15 days: before randomization, immediately after randomization, around week 12 and after treatment discontinuation around week 34 during the clinical study described in Example 2. The watch measures movements translating into assessment of sleep quality (number and duration of awakenings, wake after sleep onset or WASO, fragmentation index, sleep efficiency, total sleep period, total sleep time) and circadian rhythms ([…], relative amplitude).
(§1) A randomized, double-blind, parallel-group, placebo-controlled clinical trial was performed to study the effect on cognitive performance, safety, and tolerability of 2-(cyclohexylmethyl)-N-{2-[(2S)-1-methylpyrrolidin-2-yl]ethyl}-1,2,3,4-tetrahydroisoquinoline-7-sulfonamide difumarate monohydrate as adjunct treatment to donepezil.
More specifically, patients with mild to moderate Alzheimer's disease on stable donepezil therapy were randomized to receive doses of 0.5 mg, 2 mg, or 5 mg/day of 2-(cyclohexylmethyl)-N-{2-[(2S)-1-methylpyrrolidin-2-yl]ethyl}-1,2,3,4-tetrahydroisoquinoline-7-sulfonamide difumarate monohydrate or placebo for 24 weeks, with a 10 week follow-up period.
(§2) Patients were randomized to receive 0.5 mg, 2 mg, or 5 mg of 2-(cyclohexylmethyl)-N-{2-[(2S)-1-methylpyrrolidin-2-yl]ethyl}-1,2,3,4-tetrahydroisoquinoline-7-sulfonamide difumarate monohydrate (measured in base form), or matching placebo once a day, with donepezil (5 mg or 10 mg in the form the patient took prior to enrollment), for 24 weeks, with or without food.

[2] = system: patients with mild to moderate Alzheimer's disease; assay: clinical study, ADAS-Cog 11 items; assay type: in vivo, human; conditions: mITT
Description: “ADAS-Cog” as used herein, refers to a sensitive and standardized neuropsychological test battery to assess cognitive dysfunction characteristics of patients with AD including memory and orientation, language (aphasia), motor skills (praxis), attention and concentration. The original, standard version consists of 11 items. The total score of these 11-item scores ranges from 0-70 with higher scores indicating greater cognitive impairment. More recently, two additional tasks have been added in a new 13-item version of the scale proposed for patients with mild disease: Delayed Word Recall and Concentration/Distractibility.
as §1, with “donepezil. […]” for “donepezil.”
as §2, with “food. […]” for “food.”

CN1CCC[C@H]1CCNS(=O)(=O)c1ccc2c(c1)CN(CC1CCCCC1)CC2 [API, 2-(cyclohexylmethyl)-N-{2-[(2S)-1-methylpyrrolidin-2-yl]ethyl}-1,2,3,4-tetrahydroisoquinoline-7-sulfonamide difumarate monohydrate]
procognitive effect of co-administration in object recognition test (CD1 male mice; 3 mg/kg co-administered with 3 mg/kg donepezil hydrochloride, 48 hours post administration): significant procognitive effect | memory in object recognition test (CD1 male mice; 3 mg/kg oral, individually, 24 hours after administration): enhanced the memory | procognitive effect in object recognition test (CD1 male mice; 3 mg/kg oral, individually, after 48 hours): lack of procognitive effect | Interdaily variability, Ch from bl W2 ([1]; 0.5 mg/day with donepezil): 0.01 | Interdaily variability, Ch from bl W12 ([1]; 0.5 mg/day with donepezil): 0.04 | Intradaily stability, Ch from bl W2 ([1]; 0.5 mg/day with donepezil): −0.03 | Intradaily stability, Ch from bl W12 ([1]; 0.5 mg/day with donepezil): −0.06 | Mean awakening duration, Ch from bl W2 ([1]; 0.5 mg/day with donepezil): 0.08 min | Mean awakening duration, Ch from bl W12 ([1]; 0.5 mg/day with donepezil): 0.22 min | Mean awakening duration, significance (unlabelled line under Ch from bl W12) ([1]; 0.5 mg/day with donepezil): 0.0109 | Number of awakenings, Ch from bl W2 ([1]; 0.5 mg/day with donepezil): −0.37 | Number of awakenings, Ch from bl W12 ([1]; 0.5 mg/day with donepezil): −0.55 | Relative amplitude, Ch from bl W2 ([1]; 0.5 mg/day with donepezil): 0.00 | Relative amplitude, Ch from bl W12 ([1]; 0.5 mg/day with donepezil): 0.02 | Sleep efficiency, Ch from bl W2 ([1]; 0.5 mg/day with donepezil): −0.05% | Sleep efficiency, Ch from bl W12 ([1]; 0.5 mg/day with donepezil): −0.53% | Sleep efficiency, significance (unlabelled line under Ch from bl W12) ([1]; 0.5 mg/day with donepezil): 0.0121 | Sleep fragmentation, Ch from bl W2 ([1]; 0.5 mg/day with donepezil): 0.91 | Sleep fragmentation, Ch from bl W12 ([1]; 0.5 mg/day with donepezil): 0.29 | Total sleep time, Ch from bl W2 ([1]; 0.5 mg/day with donepezil): −0.03 h.min | Total sleep time, Ch from bl W12 ([1]; 0.5 mg/day with donepezil): 0.05 h.min | Wake after sleep onset, Ch from bl W2 ([1]; 0.5 mg/day with donepezil): 0.02 h.min | Wake after sleep onset, Ch from bl W12 ([1]; 0.5 mg/day with donepezil): 0.03 h.min | Interdaily variability, Ch from bl FUP ([1]; 0.5 mg/day with donepezil): −0.02 | Intradaily stability, Ch from bl FUP ([1]; 0.5 mg/day with donepezil): 0.06 | Mean awakening duration, Ch from bl FUP ([1]; 0.5 mg/day with donepezil): 0.01 min | Number of awakenings, Ch from bl FUP ([1]; 0.5 mg/day with donepezil): 1.34 | Relative amplitude, Ch from bl FUP ([1]; 0.5 mg/day with donepezil): −0.01 | Sleep efficiency, Ch from bl FUP ([1]; 0.5 mg/day with donepezil): −0.69% | Sleep fragmentation, Ch from bl FUP ([1]; 0.5 mg/day with donepezil): 0.98 | Total sleep time, Ch from bl FUP ([1]; 0.5 mg/day with donepezil): 0.24 h.min | Wake after sleep onset, Ch from bl FUP ([1]; 0.5 mg/day with donepezil): 0.04 h.min | sleep quality assessed by wake after sleep onset (WASO) over placebo ([1]; 2 mg and 5 mg groups, from week 12): dose-dependent worsening of sleep quality | Interdaily variability, Ch from bl W2 ([1]; 2 mg/day with donepezil): −0.01 | Interdaily variability, Ch from bl W12 ([1]; 2 mg/day with donepezil): −0.03 | Intradaily stability, Ch from bl W2 ([1]; 2 mg/day with donepezil): 0.02 | Intradaily stability, Ch from bl W12 ([1]; 2 mg/day with donepezil): 0.01 | Mean awakening duration, Ch from bl W2 ([1]; 2 mg/day with donepezil): 0.14 min | Mean awakening duration, Ch from bl W12 ([1]; 2 mg/day with donepezil): 0.40 min | Mean awakening duration, significance (unlabelled line under Ch from bl W12) ([1]; 2 mg/day with donepezil): <.0001 | Number of awakenings, Ch from bl W2 ([1]; 2 mg/day with donepezil): 0.51 | Number of awakenings, Ch from bl W12 ([1]; 2 mg/day with donepezil): 1.26 | Relative amplitude, Ch from bl W2 ([1]; 2 mg/day with donepezil): −0.03 | Relative amplitude, Ch from bl W12 ([1]; 2 mg/day with donepezil): −0.06 | Relative amplitude, significance (unlabelled line under Ch from bl W12) ([1]; 2 mg/day with donepezil): <.0001 | Sleep efficiency, Ch from bl W2 ([1]; 2 mg/day with donepezil): −1.65% | Sleep efficiency, Ch from bl W12 ([1]; 2 mg/day with donepezil): −2.58% | Sleep efficiency, significance (unlabelled line under Ch from bl W12) ([1]; 2 mg/day with donepezil): <.0001 | Sleep fragmentation, Ch from bl W2 ([1]; 2 mg/day with donepezil): 2.82 | Sleep fragmentation, Ch from bl W12 ([1]; 2 mg/day with donepezil): 6.31 | Sleep fragmentation, significance (unlabelled line under Ch from bl W12) ([1]; 2 mg/day with donepezil): <.0001 | Total sleep time, Ch from bl W2 ([1]; 2 mg/day with donepezil): −0.1 h.min | Total sleep time, Ch from bl W12 ([1]; 2 mg/day with donepezil): −0.2 h.min | Wake after sleep onset, Ch from bl W2 ([1]; 2 mg/day with donepezil): 0.07 h.min | Wake after sleep onset, Ch from bl W12 ([1]; 2 mg/day with donepezil): 0.18 h.min | Wake after sleep onset, significance (unlabelled line under Ch from bl W12) ([1]; 2 mg/day with donepezil): <.0001 | Interdaily variability, Ch from bl FUP ([1]; 2 mg/day with donepezil): −0.01 | Intradaily stability, Ch from bl FUP ([1]; 2 mg/day with donepezil): 0.04 | Mean awakening duration, Ch from bl FUP ([1]; 2 mg/day with donepezil): 0.34 min | Number of awakenings, Ch from bl FUP ([1]; 2 mg/day with donepezil): 1.27 | Relative amplitude, Ch from bl FUP ([1]; 2 mg/day with donepezil): −0.07 | Sleep efficiency, Ch from bl FUP ([1]; 2 mg/day with donepezil): −3.97% | Sleep fragmentation, Ch from bl FUP ([1]; 2 mg/day with donepezil): 3.93 | Total sleep time, Ch from bl FUP ([1]; 2 mg/day with donepezil): −0.25 h.min | Wake after sleep onset, Ch from bl FUP ([1]; 2 mg/day with donepezil): 0.13 h.min | Total sleep time, significance (unlabelled line under Ch from bl W12) ([1]; 2 mg/day with donepezil, NS = non-significant): 0.06) | total sleep time ([1]; 5 mg): No modification | total sleep time and WASO after treatment discontinuation (FUP) ([1]; 5 mg group): improved | Interdaily variability, Ch from bl W2 ([1]; 5 mg/day with donepezil): 0.00 | Interdaily variability, Ch from bl W12 ([1]; 5 mg/day with donepezil): −0.04 | Intradaily stability, Ch from bl W2 ([1]; 5 mg/day with donepezil): −0.05 | Intradaily stability, Ch from bl W12 ([1]; 5 mg/day with donepezil): 0.02 | Mean awakening duration, Ch from bl W2 ([1]; 5 mg/day with donepezil): 0.30 min | Mean awakening duration, Ch from bl W12 ([1]; 5 mg/day with donepezil): 0.38 min | Mean awakening duration, significance (unlabelled line under Ch from bl W12) ([1]; 5 mg/day with donepezil): <.0001 | Number of awakenings, Ch from bl W2 ([1]; 5 mg/day with donepezil): −0.52 | Number of awakenings, Ch from bl W12 ([1]; 5 mg/day with donepezil): 0.84 | Relative amplitude, Ch from bl W2 ([1]; 5 mg/day with donepezil): −0.02 | Relative amplitude, Ch from bl W12 ([1]; 5 mg/day with donepezil): −0.08 | Relative amplitude, significance (unlabelled line under Ch from bl W12) ([1]; 5 mg/day with donepezil): 0.0015 | Sleep efficiency, Ch from bl W2 ([1]; 5 mg/day with donepezil): −1.82% | Sleep efficiency, Ch from bl W12 ([1]; 5 mg/day with donepezil): −2.26% | Sleep efficiency, significance (unlabelled line under Ch from bl W12) ([1]; 5 mg/day with donepezil): <.0001 | Sleep fragmentation, Ch from bl W2 ([1]; 5 mg/day with donepezil): 3.57 | Sleep fragmentation, Ch from bl W12 ([1]; 5 mg/day with donepezil): 5.83 | Sleep fragmentation, significance (unlabelled line under Ch from bl W12) ([1]; 5 mg/day with donepezil): 0.0005 | Total sleep time, Ch from bl W2 ([1]; 5 mg/day with donepezil): −0.11 h.min | Total sleep time, Ch from bl W12 ([1]; 5 mg/day with donepezil): −0.05 h.min | Wake after sleep onset, Ch from bl W2 ([1]; 5 mg/day with donepezil): 0.08 h.min | Wake after sleep onset, Ch from bl W12 ([1]; 5 mg/day with donepezil): 0.17 h.min | Wake after sleep onset, significance (unlabelled line under Ch from bl W12) ([1]; 5 mg/day with donepezil): <.0001 | Interdaily variability, Ch from bl FUP ([1]; 5 mg/day with donepezil): 0.00 | Intradaily stability, Ch from bl FUP ([1]; 5 mg/day with donepezil): −0.03 | Mean awakening duration, Ch from bl FUP ([1]; 5 mg/day with donepezil): 0.12 min | Number of awakenings, Ch from bl FUP ([1]; 5 mg/day with donepezil): 1.20 | Relative amplitude, Ch from bl FUP ([1]; 5 mg/day with donepezil): −0.02 | Sleep efficiency, Ch from bl FUP ([1]; 5 mg/day with donepezil): −0.89% | Sleep fragmentation, Ch from bl FUP ([1]; 5 mg/day with donepezil): 3.08 | Total sleep time, Ch from bl FUP ([1]; 5 mg/day with donepezil): 0.1 h.min | Wake after sleep onset, Ch from bl FUP ([1]; 5 mg/day with donepezil): 0.09 h.min | ADAS-Cog score compared to placebo ([2]; 5 mg/day with donepezil, at follow-up): statistically significant improvement | mean differences in the ADAS-Cog change score ([2]; after 24 weeks of treatment, with donepezil): not significantly different
